{"source": "patent US10087449B2", "about": "“Pharmaceutical composition for treating chronic kidney disease” (SHIONOGI & CO., LTD., priority 2014, dated 2018)", "key": {"[1]": {"test_system": "NRK49F cells", "assay": "TGFβ stimulation of NRK49F rat kidney fibroblasts, gene expression by quantitative PCR", "format": "cell-based", "protocol": "Effect of stimulation by TGFβ, known as a promoting factor of fibrosis (Refer to Nephrol Dial Transplant., 1998, vol. 13, p. 573-579), on gene expression of NNMT, COL1A1, COL3A1 and COL4A1 was examined using NRK49F cells that are rat kidney fibroblasts. NRK49F cells were seeded into 12 well plates at 4×10^4 cells/well/mL and culture medium was changed to serum-free medium after 72 hr. Recombinant human TGFβ1 (R & D Co., Ltd., 5 ng/mL) was added after 24 hr and the cells were cultured for 6, 24 and 48 hr. After culture, total RNA was extracted from cells and the gene expression levels of NNMT, COL1A1, COL3A1 and COL4A1 were analyzed by quantitative PCR.\n(§1) The siRNA of NNMT was introduced into NRK49F cells, rat kidney fibroblast cell line, the effect of which on enhanced gene expression of COL1A1, COL3A1 and COL4A1 by TGFβ stimulation was examined (FIG. 4). After NRK49F cells were seeded into 12 well plates at 4×10^4 cells/well/mL and culture for 72 hr, culture medium was changed to antibiotic-free medium and siRNA sequence (F; […] (SEQ ID NO: 2), R; […] (SEQ ID NO: 3)) for rat NNMT purchased was introduced into cells for 24 hr by lipofection method using RNAiMAX (Invitrogen Corp.) which is an introduction reagent of siRNA. Next, culture medium was changed to serum-free medium and after 24 hr, human recombinant TGFβ (R & D Co., Ltd., 5 ng/mL) was added and cultured for 48 hr. After culture, total RNA was extracted from cells and the gene expression levels of NNMT, COL1A1, COL3A1 and COL4A1 were analyzed by quantitative PCR."}, "[2]": {"test_system": "rat NNMT", "assay": "siRNA knock-down of NNMT gene expression in TGFβ-stimulated NRK49F cells (quantitative PCR)", "format": "cell-based", "settings": "TGFβ 5 ng/mL, 48 hr", "protocol": "as §1"}, "[3]": {"test_system": "gene expression of COL1A1, COL3A1 and COL4A1 in NRK49F cells", "assay": "Effect of NNMT siRNA on collagen gene expression enhanced by TGFβ in NRK49F cells (quantitative PCR)", "format": "cell-based, rat", "settings": "TGFβ 5 ng/mL, 48 hr", "protocol": "as §1"}}, "data": [{"substance": "TGFβ1: Recombinant human TGFβ1 (R & D Co., Ltd.), promoting factor of fibrosis used as stimulus", "values": [{"measurement": "increase in gene expression of COL1A1", "setting": "[1]; TGFβ 5 ng/mL, 48 hr", "result": 7.1, "unit": "fold"}, {"measurement": "increase in gene expression of COL3A1", "setting": "[1]; TGFβ 5 ng/mL, 48 hr", "result": 6.5, "unit": "fold"}, {"measurement": "increase in gene expression of COL4A1", "setting": "[1]; TGFβ 5 ng/mL, 48 hr", "result": 3.1, "unit": "fold"}, {"measurement": "increase in gene expression of NNMT", "setting": "[1]; TGFβ 5 ng/mL, 48 hr", "result": "about 3.6 fold"}, {"measurement": "gene expression level of COL1A1 over time", "setting": "[1]; TGFβ1 5 ng/mL, 6, 24 and 48 hr", "result": "time-dependent increases"}, {"measurement": "gene expression level of COL3A1 over time", "setting": "[1]; TGFβ1 5 ng/mL, 6, 24 and 48 hr", "result": "time-dependent increases"}, {"measurement": "gene expression level of NNMT over time", "setting": "[1]; TGFβ1 5 ng/mL, 6, 24 and 48 hr", "result": "time-dependent increases"}, {"measurement": "gene expression of COL4A1 over time", "setting": "[1]; TGFβ1 5 ng/mL, 6, 24 and 48 hr", "result": "reached the maximum level in 6 hr and left the plateau to 24 hr"}]}, {"substance": "siRNA of NNMT: siRNA for rat NNMT, purchased; F CCACAUCCAAUAAUGAAGGACUCUU (SEQ ID NO: 2), R AAGAGUCCUUCAUUAUUGGAUGUGG (SEQ ID NO: 3) (listed as RNA, chemistry not given here)", "values": [{"measurement": "knock-down of gene expression of NNMT", "setting": "[2]; siRNA 0.01 nM", "result": 23, "unit": "%"}, {"measurement": "knock-down of gene expression of NNMT", "setting": "[2]; siRNA 0.1 nM", "result": 45, "unit": "%"}, {"measurement": "knock-down of gene expression of NNMT", "setting": "[2]; siRNA 1 nM", "result": 60, "unit": "%"}, {"measurement": "decrease in gene expression of COL1A1", "setting": "[3]; siRNA 0.01 nM", "result": 20, "unit": "%"}, {"measurement": "decrease in gene expression of COL3A1", "setting": "[3]; siRNA 0.01 nM", "result": 20, "unit": "%"}, {"measurement": "decrease in gene expression of COL4A1", "setting": "[3]; siRNA 0.01 nM", "result": 33, "unit": "%"}, {"measurement": "decrease in gene expression of COL1A1", "setting": "[3]; siRNA 0.1 nM", "result": 36, "unit": "%"}, {"measurement": "decrease in gene expression of COL3A1", "setting": "[3]; siRNA 0.1 nM", "result": 31, "unit": "%"}, {"measurement": "decrease in gene expression of COL4A1", "setting": "[3]; siRNA 0.1 nM", "result": 15, "unit": "%"}, {"measurement": "decrease in gene expression of COL1A1", "setting": "[3]; siRNA 1 nM", "result": 78, "unit": "%"}, {"measurement": "decrease in gene expression of COL3A1", "setting": "[3]; siRNA 1 nM", "result": 62, "unit": "%"}, {"measurement": "decrease in gene expression of COL4A1", "setting": "[3]; siRNA 1 nM", "result": 57, "unit": "%"}]}]}
